Values quoted from earlier work as cited in patent publication US11399558B2, “Rebaudioside-D containing sweetener compositions” (Heartland Consumer Products, LLC, priority 2015, dated 2022).
Like-named read-outs stand apart in the source and are kept apart here.

Assays:
[1] = for Solubility in ethanol: ethanol / alcohol
[2] = heat, acid, and alkaline conditions
[3] = on a weight basis
[4] = absorbed into the bloodstream in the small intestine
[5] = Chang et al. 1983

Row | SMILES | Solubility in DMSO ([1]; DMSO) | Solubility in ethanol [1] | Solubility in ethanol ([1]; listed as Erythritol) | Solubility in water [1] | Solubility in water ([1]; listed as Erythritol) | Stability [2] | Sweetness relative to sucrose (cane sugar) [3] | Excretion [4] | Stability in carbonated beverages [5]
1 | OC[C@@H](O)[C@@H](O)CO [Eryrithritol, 1,2,3,4-butanetetrol] | Insoluble | Slight | slightly soluble | Soluble | water soluble | stable | about 70% | for the most part is excreted unchanged in the urine | 
2 | C=C1C[C@@]23CC[C@H]4[C@@](C)(CCC[C@@]4(C)C(=O)O[C@@H]4O[C@H](CO)[C@@H](O)[C@H](O)[C@H]4O)[C@@H]2CC[C@]1(O[C@@H]1O[C@H](CO)[C@@H](O)[C@H](O[C@@H]2O[C@H](CO)[C@@H](O)[C@H](O)[C@H]2O)[C@H]1O[C@@H]1O[C@H](CO)[C@@H](O)[C@H](O)[C@H]1O)C3 [Rebaudioside A] |  |  |  |  |  |  |  |  | heat and pH stability
3 | C=C1C[C@@]23CC[C@H]4[C@@](C)(CCC[C@@]4(C)C(=O)O[C@@H]4O[C@H](CO)[C@@H](O)[C@H](O)[C@H]4O)[C@@H]2CC[C@]1(O[C@@H]1O[C@H](CO)[C@@H](O)[C@H](O)[C@H]1O[C@@H]1O[C@H](CO)[C@@H](O)[C@H](O)[C@H]1O)C3 [Stevioside] |  |  |  |  |  |  |  |  | heat and pH stability
